From ChEMBL document CHEMBL1201862, “PubChem BioAssay data set” (2004)
Blank lines part the entries; values can stand above or below the compound they belong to. The source made the active and inactive calls.

Key:
Assay type in all cases: functional
[1] = molecular target: T1, Lysine-specific demethylase 4C (Homo sapiens, UniProt Q9H3R0); test: GASC-1 (JMJD2C) histone demethylase inhibitors, dose response, biochemical, DELFIA europium, cherry-picked samples (AID 488835)
T1 sequence (Q9H3R0 whole entry): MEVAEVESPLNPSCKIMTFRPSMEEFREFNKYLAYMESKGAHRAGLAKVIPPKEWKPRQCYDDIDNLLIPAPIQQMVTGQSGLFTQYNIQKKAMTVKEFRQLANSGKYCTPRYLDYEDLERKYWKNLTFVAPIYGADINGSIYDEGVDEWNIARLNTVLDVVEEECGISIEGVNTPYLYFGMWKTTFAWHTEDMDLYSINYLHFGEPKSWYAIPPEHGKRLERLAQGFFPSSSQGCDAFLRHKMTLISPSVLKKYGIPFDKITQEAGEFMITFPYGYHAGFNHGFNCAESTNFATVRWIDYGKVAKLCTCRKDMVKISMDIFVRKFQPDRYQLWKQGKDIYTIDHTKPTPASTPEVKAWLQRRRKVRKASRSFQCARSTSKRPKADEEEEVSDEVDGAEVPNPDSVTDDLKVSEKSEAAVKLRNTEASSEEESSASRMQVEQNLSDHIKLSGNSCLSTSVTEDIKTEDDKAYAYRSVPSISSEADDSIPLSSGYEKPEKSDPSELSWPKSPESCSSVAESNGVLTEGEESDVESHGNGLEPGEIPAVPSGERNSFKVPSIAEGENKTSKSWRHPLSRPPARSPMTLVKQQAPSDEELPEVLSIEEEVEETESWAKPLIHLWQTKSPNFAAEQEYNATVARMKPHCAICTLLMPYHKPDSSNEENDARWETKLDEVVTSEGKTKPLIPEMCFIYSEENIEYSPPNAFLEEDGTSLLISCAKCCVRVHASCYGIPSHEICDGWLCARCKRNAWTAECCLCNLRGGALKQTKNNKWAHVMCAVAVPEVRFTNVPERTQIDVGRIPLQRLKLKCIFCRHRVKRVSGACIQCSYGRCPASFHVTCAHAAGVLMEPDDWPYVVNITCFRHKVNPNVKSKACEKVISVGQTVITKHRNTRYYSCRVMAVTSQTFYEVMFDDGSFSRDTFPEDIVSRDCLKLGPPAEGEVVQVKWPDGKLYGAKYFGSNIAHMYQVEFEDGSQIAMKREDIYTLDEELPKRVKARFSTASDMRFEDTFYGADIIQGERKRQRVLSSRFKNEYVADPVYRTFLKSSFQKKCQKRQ

Activin receptor type-1 = Activin receptor type-1 (Homo sapiens, UniProt Q04771); test: Navigating the Kinome. Panel member name: ACVR1
Activin receptor type-1, sequence (Q04771 whole entry): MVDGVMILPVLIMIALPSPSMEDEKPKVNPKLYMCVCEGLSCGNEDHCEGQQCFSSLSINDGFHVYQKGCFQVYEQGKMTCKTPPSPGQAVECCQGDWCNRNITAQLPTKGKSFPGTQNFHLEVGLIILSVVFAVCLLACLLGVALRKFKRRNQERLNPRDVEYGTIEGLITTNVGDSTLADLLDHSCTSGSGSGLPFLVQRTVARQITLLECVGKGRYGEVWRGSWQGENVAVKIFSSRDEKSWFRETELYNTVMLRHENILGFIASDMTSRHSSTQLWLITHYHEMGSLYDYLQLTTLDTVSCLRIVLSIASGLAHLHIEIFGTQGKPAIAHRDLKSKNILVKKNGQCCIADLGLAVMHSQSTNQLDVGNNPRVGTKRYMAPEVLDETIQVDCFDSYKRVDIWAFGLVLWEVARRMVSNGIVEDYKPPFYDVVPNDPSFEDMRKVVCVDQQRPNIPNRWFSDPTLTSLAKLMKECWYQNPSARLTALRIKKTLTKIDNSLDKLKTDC

[2] = molecular target: Cyclin-dependent kinase 5 (Homo sapiens, UniProt Q00535);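 further: CDK5 measured as one member of a kinase profiling panel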
Cyclin-dependent kinase 5, sequence (Q00535 whole entry): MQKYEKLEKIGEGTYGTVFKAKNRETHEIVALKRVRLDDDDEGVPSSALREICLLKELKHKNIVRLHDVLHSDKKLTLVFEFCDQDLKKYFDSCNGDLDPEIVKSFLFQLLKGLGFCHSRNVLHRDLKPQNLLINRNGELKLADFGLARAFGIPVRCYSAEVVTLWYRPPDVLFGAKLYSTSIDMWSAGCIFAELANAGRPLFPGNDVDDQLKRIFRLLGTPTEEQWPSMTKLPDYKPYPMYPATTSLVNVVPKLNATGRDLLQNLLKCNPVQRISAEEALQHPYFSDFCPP

Hexokinase-1 = molecular target: T2, Hexokinase-1 (Homo sapiens, UniProt P19367); test: hexokinase 1 activators, dose response, selectivity assay for HKDC1 activator project, biochemical (AID 504762)
T2 sequence (P19367 whole entry): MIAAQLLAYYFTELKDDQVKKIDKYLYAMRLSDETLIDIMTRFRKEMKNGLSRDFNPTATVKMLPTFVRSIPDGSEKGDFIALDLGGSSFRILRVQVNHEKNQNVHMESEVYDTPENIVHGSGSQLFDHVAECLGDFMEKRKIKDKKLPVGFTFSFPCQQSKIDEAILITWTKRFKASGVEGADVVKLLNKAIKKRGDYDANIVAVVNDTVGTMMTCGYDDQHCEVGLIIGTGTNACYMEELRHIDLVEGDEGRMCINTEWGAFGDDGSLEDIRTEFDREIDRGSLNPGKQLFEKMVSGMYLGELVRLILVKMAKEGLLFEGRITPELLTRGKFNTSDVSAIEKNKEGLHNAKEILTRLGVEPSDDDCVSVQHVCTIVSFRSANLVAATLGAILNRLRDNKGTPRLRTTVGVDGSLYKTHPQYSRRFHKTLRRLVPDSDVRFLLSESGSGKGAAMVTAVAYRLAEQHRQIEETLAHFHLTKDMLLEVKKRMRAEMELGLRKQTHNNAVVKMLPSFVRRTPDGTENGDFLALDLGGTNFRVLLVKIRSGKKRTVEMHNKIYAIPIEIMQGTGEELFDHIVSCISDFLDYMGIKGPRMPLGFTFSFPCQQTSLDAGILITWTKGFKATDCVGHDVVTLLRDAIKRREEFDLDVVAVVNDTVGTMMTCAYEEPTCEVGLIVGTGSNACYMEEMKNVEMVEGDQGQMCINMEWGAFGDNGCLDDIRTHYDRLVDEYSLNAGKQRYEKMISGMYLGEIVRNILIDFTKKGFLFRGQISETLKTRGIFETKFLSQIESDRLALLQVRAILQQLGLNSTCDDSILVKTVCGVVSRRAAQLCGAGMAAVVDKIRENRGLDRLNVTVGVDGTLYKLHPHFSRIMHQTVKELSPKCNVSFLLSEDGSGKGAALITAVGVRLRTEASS

Compound: O=C(Cc1ccccc1Cl)NC1(O)C(=O)c2ccccc2C1=O
AC50 [1]: 7.1 µM (active)

Ki (Activin receptor type-1): > 3.98 µM (inactive)
Compound: O=C(Nc1cc(-c2c[nH]c3ncccc23)cc(Cl)n1)c1ccccc1

Ki [2]: > 3.16 µM (inactive)
Compound: Nc1c(-c2ccc(NC(=O)Nc3cccc(C(F)(F)F)c3)cc2)cnc2c(-c3ccc4c(c3)OCO4)cnn12

Compound: CCN1C(=Cc2sc3ccccc3[n+]2C)C=Cc2cccc(C)c21
EC50 (Hexokinase-1): > 80 µM (inactive)
